Here are results for 2 compounds from publication PMC9369442, “Synthetic Peucedanocoumarin IV Prevents α-Synuclein Neurotoxicity in an Animal Model of Parkinson’s Disease” (International Journal of Molecular Sciences, 2022).

The half-life is how long it takes for the measured level to halve. A word on the bioavailability: it is dose-corrected exposure relative to a reference, in per cent.

Read-outs that look alike come from different tables or passages of the source.

Data set [1] has as its system 6-OHDA-induced PD mouse model. Details: method as in PMID 31689937. The following applies: cited from earlier work.
Data set [2] in a line: Rat pharmacokinetics after intravenous and oral administration. The note with it: 10 mg/kg, rats. Type of data set: in vivo. The procedure:
Figure 3 Pharmacokinetic analysis and tissue distribution of PCiv. (A) Pharmacokinetic analysis of blood PCiv levels at each indicated time point following intravenous or oral administration of PCiv (10 mg/kg) determined by ultra-performance liquid chromatography (n = 4 rats for oral and 5 rats for intravenous administration). (B) Quantification of PCiv levels in each indicated tissue (ng/g tissue weight) determined by ultra-performance liquid chromatography (n = 3 rats, tissues collected 15 min after intravenous PCiv administration (10 mg/kg). PCiv was dissolved in a vehicle (DMSO:PEG400:saline ratio of 5:70:25) for solubilization. The quantified data are expressed as means ± standard deviations.
In vivo rat pharmacokinetic studies were performed for intravenous and oral administration of PCiv as previously reported. Sprague-Dawley rats (8 weeks old, 260–280 g) were purchased from Orient Bio Inc. (Seongnam, Korea). Rats were maintained with free access to food and water under a 12:12 h light/dark cycle for 1 week. For pharmacokinetic studies, under anesthetic conditions (20 mg/kg tiletamine/zolazepam [Zoletil; Vibrac Laboratories, Carros, France] administered intramuscularly), the femoral vein and artery were surgically cannulated using polyethylene tubing (PE50; Clay Adams, Parsippany, NJ, USA) in fasted rats. Then, PCiv was administered intravenously and orally at a dose of 10 mg/kg (n = 4–5). The drug was dissolved in a vehicle (DMSO:PEG400:saline at a ratio of 5:70:25). Blood samples (approximately 100 μL) were collected at predetermined time points (0, 1, 5 (intravenous administration only), 15, 30, 60, 120, 180, 240, 360, and 480 min) after drug administration. To prevent blood clots and fluid loss, the cannula to the femoral artery was flushed with 20 IU/mL heparinized saline, and the same volume of saline was pushed to the cannula for the femoral vein. The plasma fraction was immediately obtained after centrifugation at 14,000 rpm for 15 min at 4 °C and then stored at −20 °C prior to analysis using the ultra-high-performance liquid chromatography (UHPLC)-diode array detector (DAD) method. Similarly, a tissue distribution study was performed 15 min after the intravenous bolus injection (10 mg/kg), as previously described. Four major tissues, including tissues from the brain, heart, kidneys, and liver, were collected. Based on the wet weights of the tissue samples, a two-fold volume of PBS was added and homogenized. The tissue homogenates were stored at −20 °C before UHPLC-DAD analysis. The UHPLC-DAD system consisted of an Agilent Technologies 1290 Infinity II equipped with a DAD (G7117A), an autosampler (G71678B), a binary pump (G7104A), and a multicolumn thermostat (G7116B). The PCiv level was determined using a CapcellpakTM C18 5 μm column (250 × 1.5 mm, Shiseido Fine Chemical Co., Tokyo, Japan), as previously described. The mobile phase was composed of 0.1% phosphoric acid and acetonitrile and eluted in the gradient mode at a flow rate of 0.2 mL/min. A DAD detector was applied at 321 nm, with an injection volume of 10 μL. The calibration range was 20–10,000 ng/mL with good linearity (R = 0.99783 with 1/× weighting). The tissue concentration levels were calculated as the PCiv amount (ng) per gram of organ weight.

The target of data set [3] is T1, recombinant α-synuclein (Homo sapiens, UniProt P37840).
T1 construct: made in house; host or cells: Escherichia coli BL21
Nature of the data set: In vitro recombinant α-synuclein aggregation, Western blot. The class given is biochemical. The note with it: 100 μM, 37 °C, 3 or 5 days. Here is the method:
Figure 2 PCiv prevents α-synuclein aggregation in vitro and in cultured neurons with PFF treatment. (A) Representative Western blots showing the degree of recombinant α-synuclein (αSyn) aggregation in a test tube in the presence or absence of PCiv (100 μM) at the indicated incubation duration (phosphate-buffered saline [PBS], 37 °C for 3 or 5 days). Aggregation of α-synuclein was determined using α-synuclein antibody. (B) Quantification of the relative amount of α-synuclein aggregate in high molecular weight sizes in panel A (n = 3 per group). […] (D) Quantification of pS129-αSyn immunofluorescence signal intensities in MAP2-positive cortical neurons in each experimental group (n = 15 cells from three separate experiments). (E) Cell viability assessment in the indicated experimental groups was monitored by CCK-8 assay (n = 3 per group). The data are expressed as means ± SEMs. * p < 0.05, ** p < 0.01, *** p < 0.001, and **** p < 0.0001, ANOVA test followed by Tukey’s post hoc analysis. […]
(A) Representative Western blots showing the degree of recombinant α-synuclein (αSyn) aggregation in a test tube in the presence or absence of t-Khellatone, PCiii, and PCiv (100 μM) at 0 and 5 days of incubation (phosphate-buffered saline [PBS], 37 °C for 5 days). Aggregation of α-synuclein was determined using α- synuclein antibody. […]
On the technique in general: A western blot detects proteins with antibodies after separation by electrophoresis.

Take `C/C=C(\C)C(=O)O[C@@H]1c2c(ccc3ccc(=O)oc23)OC(C)(C)[C@H]1OC(C)=O` (relative stereo) [PCiii, peucedanocoumarin III]: the neuroprotection result in data set [1] is “neuroprotective”.

As to `C/C=C(\C)C(=O)O[C@H]1[C@H](OC(C)=O)c2c(ccc3ccc(=O)oc23)OC1(C)C` (relative stereo) [PCiv, trans-4′-acetyl-3′-tigloylkhellactone], the half-life in data set [2] (Sprague-Dawley, rat, plasma, iv, intravenous, read-out: mean half-life) was determined as 85.8 min. In addition, the half-life in data set [2] (Sprague-Dawley, rat, plasma, po, oral administration, read-out: half-life) was around 97 min. The bioavailability in data set [2] (Sprague-Dawley, rat, plasma, po, oral, read-out: absolute bioavailability) was 9.96%. In addition, in data set [2] (Sprague-Dawley, rat, plasma, intravenous, read-out: mean steady-state volume of distribution), the Vd was 6.62 L/kg. In data set [2] (Sprague-Dawley, rat, plasma, intravenous, read-out: mean systemic total clearance), the clearance is 136 mL/min/kg. Also, in data set [2] (oral), the absolute bioavailability is given as around 10% and the maximum concentration result is “low”. In addition, in data set [3], the “aggregation of recombinant α-synuclein into high molecular weight species” value was “robustly blocked”.
